Experimental data published in the NIST ThermoML archive (doi:10.1021/je500284p).
Numbers after ± are expanded uncertainties.

Details: 101.33 kPa, Liquid

NC=O [formamide]
Details | viscosity [mPa·s]
298.15 K | 3.23 ± 0.17
303.15 K | 2.95 ± 0.16
308.15 K | 2.67 ± 0.15
313.15 K | 2.43 ± 0.14
318.15 K | 2.2 ± 0.13
323.15 K | 1.99 ± 0.12
328.15 K | 1.82 ± 0.11
333.15 K | 1.69 ± 0.11
338.15 K | 1.58 ± 0.11
343.15 K | 1.52 ± 0.1
348.15 K | 1.49 ± 0.1
